Reference: article PMC7377239, “Cardiovascular Effects of Polychlorinated Biphenyls and Their Major Metabolites” (Environmental Health Perspectives, 2020)
Read-outs that look alike come from different tables or passages of the source.

Key:
[1] = tested on: iCell endothelial cells (human iPSC-derived ECs); assay: High-content imaging cytotoxicity in iCell endothelial cells, 24 h; type: cell-based; conditions: Homo sapiens, Endothelial cell, iPSC-EC; for viability at 0.1 µM / activity at 0.1 µM: 0.10 µM; for minimal effective concentration: 100.00 = highest concentration tested
Outline: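 Human iPSC-derived endothelial cells (passages 1–5) were grown to a fibronectin-coated monolayer, then exposed 24 h at 37 °C with 0.5% DMSO vehicle. Staining was Hoechst 33342, MitoTracker Orange and calcein AM, read by high-content imaging. Point of departure came from 4-parameter logistic fits, with a 1-SD vehicle cutoff and 100 µM as the top concentration.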

HUVECs = assay: Tube formation (tubulogenesis) assay in HUVECs, 18 h; type: cell-based, human; conditions: Homo sapiens, HUVEC, 18 h, HUVECs tube formation; for activity at 0.01 µM: concentration 0.01 µM; for activity at 0.1 µM: concentration 0.10 µM; for activity at 1 µM: concentration 1.00 µM; for activity at 10 µM: concentration 10.00 µM; for activity at 100 µM: concentration 100.00 µM
Outline: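 HUVECs (passage 1–5) seeded on reduced-growth-factor basement membrane and exposed to compounds overnight at 37°C, 5% CO2, in 2× maintenance medium with 12.5 ng/mL VEGF; 0.5% DMSO vehicle. Calcein AM-stained tube networks imaged and analysed; vehicle-normalized readouts fit to four-parameter logistic, POD set at one SD of vehicle means.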

[2] = 0.00 µM = 100.00, read-out: endo.cyto.24hr
[3] = 0.00 µM = 100.00, read-out: endo.mito.24hr
[4] = 0.00 µM = 100.00, read-out: endo.mitoint.24hr
[5] = 0.00 µM = 100.00, read-out: endo.nma.24hr
[6] = 0.00 µM = 100.00, read-out: endo.tc.24hrs
[7] = 0.00 µM = 100.00, read-out: huvec.mtl.18hr
[8] = 0.00 µM = 100.00, read-out: huvec.tlps.18hr
[9] = 0.00 µM = 100.00, read-out: huvec.tta.18hr
[10] = 0.00 µM = 100.00, read-out: huvec.ttl.18hr

Which viability at 0.01 µM [1, 2] does the source give for `Clc1cc(Cl)c(-c2cc(Cl)c(Cl)cc2Cl)cc1Cl` [PCB153] here?
Its viability at 0.01 µM is 97.6%.

And the activity at 0.01 µM [1, 3]?
Its activity at 0.01 µM is 97.9%.

What about the activity at 0.01 µM [1, 4] of the same compound?
The activity at 0.01 µM was 86%.

And the activity at 0.01 µM [1, 5]?
The activity at 0.01 µM was 102%.

And the viability at 0.01 µM [1, 6]?
The viability at 0.01 µM was 97.6%.

And the viability at 0.1 µM [1, 2]?
Its viability at 0.1 µM is 97.8%.

And the activity at 0.1 µM [1, 3]?
Its activity at 0.1 µM is 98.2%.

What about the activity at 0.1 µM [1, 4] of the same compound?
Its activity at 0.1 µM is 85.5%.

What about the activity at 0.1 µM [1, 5] of the same compound?
Its activity at 0.1 µM is 101%.

And the viability at 0.1 µM [1, 6]?
The viability at 0.1 µM was 97.8%.

And the viability at 1 µM [1, 2]?
The viability at 1 µM was 103%.

What about the activity at 1 µM [1, 3] of the same compound?
The activity at 1 µM was 103%.

And the activity at 1 µM [1, 4]?
The activity at 1 µM was 84.3%.

And the activity at 1 µM [1, 5]?
Its activity at 1 µM is 100%.

And the viability at 1 µM [1, 6]?
Its viability at 1 µM is 103%.

And the viability at 10 µM [1, 2]?
The viability at 10 µM was 109%.

And the activity at 10 µM [1, 3]?
Its activity at 10 µM is 110%.

And the activity at 10 µM [1, 4]?
Its activity at 10 µM is 80.5%.

And the activity at 10 µM [1, 5]?
Its activity at 10 µM is 98%.

And the viability at 10 µM [1, 6]?
The viability at 10 µM was 109%.

What about the viability at 100 µM [1, 2] of the same compound?
Its viability at 100 µM is 45.5%.

And the activity at 100 µM [1, 3]?
The activity at 100 µM was 42%.

What about the activity at 100 µM [1, 4] of the same compound?
The activity at 100 µM was 57.6%.

And the activity at 100 µM [1, 5]?
Its activity at 100 µM is 108%.

And the viability at 100 µM [1, 6]?
Its viability at 100 µM is 46.4%.

And the minimal effective concentration ([1]; read-out: endo.cyto.24hr POD)?
The minimal effective concentration was 18.6 µM.

And the minimal effective concentration ([1]; read-out: endo.mito.24hr POD)?
Its minimal effective concentration is 18.6 µM.

What about the minimal effective concentration ([1]; read-out: endo.mitoint.24hr POD) of the same compound?
Its minimal effective concentration is 0.07 µM.

And the minimal effective concentration ([1]; read-out: endo.nma.24hr POD)?
The minimal effective concentration was 62.5 µM.

What about the minimal effective concentration ([1]; read-out: endo.tc.24hrs POD) of the same compound?
The minimal effective concentration was 49.2 µM.

What about the minimal effective concentration (HUVECs; MAX 100.00, read-out: huvec.mtl.18hr POD) of the same compound?
Its minimal effective concentration is 19.8 µM.

And the minimal effective concentration (HUVECs; MAX 100.00, read-out: huvec.tlps.18hr POD)?
The minimal effective concentration was 61.8 µM.

What about the minimal effective concentration (HUVECs; MAX 100.00, read-out: huvec.tta.18hr POD) of the same compound?
The minimal effective concentration was 8.87 µM.

What about the minimal effective concentration (HUVECs; MAX 100.00, read-out: huvec.ttl.18hr POD) of the same compound?
Its minimal effective concentration is 0.13 µM.

What about the activity at 0.01 µM (HUVECs; [7]) of the same compound?
The activity at 0.01 µM was 88.3%.

What about the activity at 0.01 µM (HUVECs; [8]) of the same compound?
Its activity at 0.01 µM is 103%.

And the activity at 0.01 µM (HUVECs; [9])?
Its activity at 0.01 µM is 72.1%.

And the activity at 0.01 µM (HUVECs; [10])?
Its activity at 0.01 µM is 66.9%.

What about the activity at 0.1 µM (HUVECs; [7]) of the same compound?
Its activity at 0.1 µM is 95.5%.

And the activity at 0.1 µM (HUVECs; [8])?
The activity at 0.1 µM was 80.3%.

What about the activity at 0.1 µM (HUVECs; [9]) of the same compound?
The activity at 0.1 µM was 103%.

And the activity at 0.1 µM (HUVECs; [10])?
The activity at 0.1 µM was 95.6%.

And the activity at 1 µM (HUVECs; [7])?
Its activity at 1 µM is 88.7%.

And the activity at 1 µM (HUVECs; [8])?
The activity at 1 µM was 89.4%.

What about the activity at 1 µM (HUVECs; [9]) of the same compound?
Its activity at 1 µM is 73.7%.

And the activity at 1 µM (HUVECs; [10])?
Its activity at 1 µM is 66.3%.

What about the activity at 10 µM (HUVECs; [7]) of the same compound?
Its activity at 10 µM is 95.2%.

And the activity at 10 µM (HUVECs; [8])?
Its activity at 10 µM is 107%.

What about the activity at 10 µM (HUVECs; [9]) of the same compound?
The activity at 10 µM was 115%.

And the activity at 10 µM (HUVECs; [10])?
Its activity at 10 µM is 106%.

And the activity at 100 µM (HUVECs; [7])?
The activity at 100 µM was 65.2%.

And the activity at 100 µM (HUVECs; [8])?
Its activity at 100 µM is 61%.

And the activity at 100 µM (HUVECs; [9])?
Its activity at 100 µM is 54.1%.

And the activity at 100 µM (HUVECs; [10])?
The activity at 100 µM was 48%.
